Experimental data taken from PubChem BioAssay AID248 (DTP/NCI, 2004).
“And” between values parts separate entries of the source, which are not always exact repeats. Identical values can stand only once. Toxic doses and inconclusive results are not listed. Rule as the data show it: active = T/C of 150% or more; inactive = T/C below 125%.

System: L1210 leukemia ip in BDF1 mice, survival T/C
Assay: NCI In Vivo Anticancer Drug Screen. Data for tumor model L1210 Leukemia (intraperitoneal) in B6D2F1 (BDF1) mice
Settings: higher = longer survival
Procedure, shortened: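 Transplantable tumor model; survival measured in treated vs vehicle control mice. Value = treated/control.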

[1] = endpoint: mean survival time, dose: 100.0 mg/kg/injection, schedule: Q01DX009 (ip), vehicle: saline with Tween-80
[2] = endpoint: mean survival time, dose: 100.0 mg/kg/injection, schedule: Q04DX002 (ip), vehicle: saline with Tween-80
[3] = endpoint: mean survival time, dose: 200.0 mg/kg/injection, schedule: Q01DX009 (ip), vehicle: saline with Tween-80
[4] = endpoint: mean survival time, dose: 200.0 mg/kg/injection, schedule: Q04DX002 (ip), vehicle: saline with Tween-80
[5] = endpoint: mean survival time, dose: 400.0 mg/kg/injection, schedule: Q01DX009 (ip), vehicle: saline with Tween-80
[6] = endpoint: mean survival time, dose: 400.0 mg/kg/injection, schedule: Q04DX002 (ip), vehicle: saline with Tween-80
[7] = endpoint: mean survival time, dose: 100.0 mg/kg/injection, schedule: Q01DX009 (ip), vehicle: saline
[8] = endpoint: mean survival time, dose: 100.0 mg/kg/injection, schedule: Q04DX003 (ip), vehicle: saline
[9] = endpoint: mean survival time, dose: 200.0 mg/kg/injection, schedule: Q01DX009 (ip), vehicle: saline
[10] = endpoint: mean survival time, dose: 400.0 mg/kg/injection, schedule: Q01DX009 (ip), vehicle: saline
[11] = endpoint: mean survival time, dose: 100.0 mg/kg/injection, schedule: Q01DX009 (ip), vehicle: Klucel (hydroxypropylcellulose) (HPC)

Measured: T/C

C[C@H]1C(=O)O[C@@H]2CCN3CC=C(COC(=O)[C@](C)(O)[C@@]1(C)O)[C@H]23
inactive: endpoint: mean survival time, dose: 3.13 mg/kg/injection, schedule: Q01DX010 (ip), vehicle: saline 93 % of control and 94 % of control | endpoint: mean survival time, dose: 6.25 mg/kg/injection, schedule: Q01DX009 (ip), vehicle: saline 95 % of control and 104 % of control | endpoint: mean survival time, dose: 6.25 mg/kg/injection, schedule: Q01DX010 (ip), vehicle: saline 96 % of control and 87 % of control | endpoint: mean survival time, dose: 12.5 mg/kg/injection, schedule: Q01DX009 (ip), vehicle: saline 92 % of control and 104 % of control | endpoint: mean survival time, dose: 12.5 mg/kg/injection, schedule: Q01DX010 (ip), vehicle: saline 92 % of control and 93 % of control | endpoint: mean survival time, dose: 17.6 mg/kg/injection, schedule: Q01DX Z (ip), vehicle: methylcellulose (MC) 98 % of control | endpoint: mean survival time, dose: 25.0 mg/kg/injection, schedule: Q01DX009 (ip), vehicle: saline 103 % of control and 104 % of control | endpoint: mean survival time, dose: 25.0 mg/kg/injection, schedule: Q01DX010 (ip), vehicle: saline 92 % of control and 94 % of control | endpoint: mean survival time, dose: 26.8 mg/kg/injection, schedule: Q01DX Z (ip), vehicle: methylcellulose (MC) 101 % of control | endpoint: mean survival time, dose: 40.0 mg/kg/injection, schedule: Q01DX Z (ip), vehicle: methylcellulose (MC) 101 % of control | endpoint: mean survival time, dose: 50.0 mg/kg/injection, schedule: Q01DX009 (ip), vehicle: saline 105 % of control and 121 % of control | endpoint: mean survival time, dose: 60.0 mg/kg/injection, schedule: Q01DX Z (ip), vehicle: methylcellulose (MC) 95 % of control | endpoint: mean survival time, dose: 90.0 mg/kg/injection, schedule: Q01DX Z (ip), vehicle: methylcellulose (MC) 106 % of control | endpoint: mean survival time, dose: 135.0 mg/kg/injection, schedule: Q01DX Z (ip), vehicle: methylcellulose (MC) 111 % of control and 113 % of control | endpoint: mean survival time, dose: 193.0 mg/kg/injection, schedule: Q01DX Z (ip), vehicle: methylcellulose (MC) 108 % of control | endpoint: median survival time, dose: 6.25 mg/kg/injection, schedule: Q01DX009 (ip), vehicle: saline 95 % of control and 100 % of control | endpoint: median survival time, dose: 12.5 mg/kg/injection, schedule: Q01DX009 (ip), vehicle: saline 100 % of control | endpoint: median survival time, dose: 25.0 mg/kg/injection, schedule: Q01DX009 (ip), vehicle: saline 100 % of control | endpoint: median survival time, dose: 50.0 mg/kg/injection, schedule: Q01DX009 (ip), vehicle: saline 100 % of control and 110 % of control

COc1cc(/C=C(/C#N)C(N)=O)cc(OC)c1OC
inactive: [1] 93 % of control | [2] 97 % of control | [3] 93 % of control | [4] 93 % of control | [5] 95 % of control | [6] 97 % of control

COc1cc(N(CCCl)CCCl)ccc1C1N(Cc2ccc(N(C)C)cc2)CCCN1Cc1ccc(N(C)C)cc1
inactive: endpoint: mean survival time, dose: 100.0 mg/kg/injection, schedule: Q04DX003 (ip), vehicle: Klucel (hydroxypropylcellulose) (HPC) 100 % of control | endpoint: mean survival time, dose: 200.0 mg/kg/injection, schedule: Q04DX003 (ip), vehicle: Klucel (hydroxypropylcellulose) (HPC) 107 % of control | endpoint: mean survival time, dose: 400.0 mg/kg/injection, schedule: Q04DX003 (ip), vehicle: Klucel (hydroxypropylcellulose) (HPC) 104 % of control

CC(Br)(C(CC(=O)C1CC1)c1ccccc1)[N+](=O)[O-] (stereo not given)
inactive: endpoint: mean survival time, dose: 25.0 mg/kg/injection, schedule: Q01DX009 (ip), vehicle: other 93 % of control | endpoint: mean survival time, dose: 25.0 mg/kg/injection, schedule: Q04DX003 (ip), vehicle: other 100 % of control | endpoint: mean survival time, dose: 50.0 mg/kg/injection, schedule: Q01DX001 (ip), vehicle: carboxymethylcellulose (CMC) 108 % of control | endpoint: mean survival time, dose: 50.0 mg/kg/injection, schedule: Q01DX009 (ip), vehicle: other 89 % of control and 90 % of control | endpoint: mean survival time, dose: 50.0 mg/kg/injection, schedule: Q04DX003 (ip), vehicle: other 96 % of control | endpoint: mean survival time, dose: 100.0 mg/kg/injection, schedule: Q01DX001 (ip), vehicle: carboxymethylcellulose (CMC) 90 % of control | endpoint: mean survival time, dose: 100.0 mg/kg/injection, schedule: Q01DX009 (ip), vehicle: other 91 % of control | endpoint: mean survival time, dose: 100.0 mg/kg/injection, schedule: Q04DX003 (ip), vehicle: other 93 % of control and 103 % of control | endpoint: mean survival time, dose: 200.0 mg/kg/injection, schedule: Q01DX001 (ip), vehicle: carboxymethylcellulose (CMC) 92 % of control | endpoint: mean survival time, dose: 400.0 mg/kg/injection, schedule: Q01DX001 (ip), vehicle: carboxymethylcellulose (CMC) 95 % of control

O=C(NO)c1ccc(C(=O)NO)c(Br)c1
inactive: [7] 103 % of control | [8] 107 % of control | [9] 112 % of control | endpoint: mean survival time, dose: 200.0 mg/kg/injection, schedule: Q04DX003 (ip), vehicle: saline 107 % of control | [10] 108 % of control | endpoint: mean survival time, dose: 400.0 mg/kg/injection, schedule: Q04DX003 (ip), vehicle: saline 105 % of control

N=C(N)c1ccc(OCCCCOc2ccc(N)cc2Cl)cc1
inactive: endpoint: mean survival time, dose: 50.0 mg/kg/injection, schedule: Q01DX009 (ip), vehicle: Klucel (hydroxypropylcellulose) (HPC) 111 % of control | [11] 97 % of control

COC(=O)C1=C(C(=O)OC)C2CCC1O2
inactive: [7] 112 % of control | [2] 105 % of control | [9] 106 % of control | [4] 101 % of control | [10] 95 % of control | [6] 94 % of control

CC(=O)OCC1OC(n2cnc3c(=O)[nH]c(N)nc32)C(OC(C)=O)C1OC(C)=O (stereo not given)
inactive: endpoint: mean survival time, dose: 100.0 mg/kg/injection, schedule: Q01DX005 (ip), vehicle: saline 91 % of control | endpoint: mean survival time, dose: 200.0 mg/kg/injection, schedule: Q01DX005 (ip), vehicle: saline 102 % of control and 109 % of control

C=CCCCCCCCCCC(CCCCC)C(=O)O (stereo not given)
inactive: endpoint: mean survival time, dose: 100.0 mg/kg/injection, schedule: Q01DX001 (ip), vehicle: saline with Tween-80 100 % of control | endpoint: mean survival time, dose: 200.0 mg/kg/injection, schedule: Q01DX001 (ip), vehicle: saline with Tween-80 94 % of control | endpoint: mean survival time, dose: 400.0 mg/kg/injection, schedule: Q01DX001 (ip), vehicle: saline with Tween-80 92 % of control

CC1=CC(O)C(C(C)C)C1 (stereo not given)
inactive: endpoint: mean survival time, dose: 100.0 mg/kg/injection, schedule: Q01DX001 (ip), vehicle: other 102 % of control | endpoint: mean survival time, dose: 200.0 mg/kg/injection, schedule: Q01DX001 (ip), vehicle: other 98 % of control | endpoint: mean survival time, dose: 400.0 mg/kg/injection, schedule: Q01DX001 (ip), vehicle: other 98 % of control

CCCCC1CCC(N)CC1 (stereo not given)
inactive: endpoint: mean survival time, dose: 25.0 mg/kg/injection, schedule: Q04DX003 (ip), vehicle: saline 105 % of control | endpoint: mean survival time, dose: 50.0 mg/kg/injection, schedule: Q04DX003 (ip), vehicle: saline 100 % of control | [8] 105 % of control

C/C(CC(C)C)=N\NC(=O)Nc1cccc(Cl)c1C
inactive: endpoint: mean survival time, dose: 100.0 mg/kg/injection, schedule: Q01DX001 (ip), vehicle: Klucel (hydroxypropylcellulose) (HPC) 86 % of control | [11] 99 % of control and 103 % of control | endpoint: mean survival time, dose: 100.0 mg/kg/injection, schedule: Q04DX002 (ip), vehicle: Klucel (hydroxypropylcellulose) (HPC) 98 % of control and 92 % of control | endpoint: mean survival time, dose: 200.0 mg/kg/injection, schedule: Q01DX001 (ip), vehicle: Klucel (hydroxypropylcellulose) (HPC) 93 % of control | endpoint: mean survival time, dose: 200.0 mg/kg/injection, schedule: Q01DX009 (ip), vehicle: Klucel (hydroxypropylcellulose) (HPC) 96 % of control and 99 % of control | endpoint: mean survival time, dose: 200.0 mg/kg/injection, schedule: Q04DX002 (ip), vehicle: Klucel (hydroxypropylcellulose) (HPC) 103 % of control and 92 % of control | endpoint: mean survival time, dose: 400.0 mg/kg/injection, schedule: Q01DX001 (ip), vehicle: Klucel (hydroxypropylcellulose) (HPC) 93 % of control | endpoint: mean survival time, dose: 400.0 mg/kg/injection, schedule: Q01DX009 (ip), vehicle: Klucel (hydroxypropylcellulose) (HPC) 93 % of control and 95 % of control | endpoint: mean survival time, dose: 400.0 mg/kg/injection, schedule: Q04DX002 (ip), vehicle: Klucel (hydroxypropylcellulose) (HPC) 95 % of control

O=C(O)CS(=O)(=O)c1ccc(Cl)cc1
inactive: [1] 109 % of control | [3] 102 % of control | [5] 86 % of control
